Source: US20260297081A1, “COMPOUNDS AND METHODS OF TREATING CANCERS” (Cullgen Inc., priority 2023, published 2026)

Target: CDK4 (Homo sapiens, UniProt P11802+Q16531)
Test: CDK4 percentage degradation in Calu-1 cells (Table 6)
Assay type: cell-based
Design: Cells that express cyclin D1-3 and CDK4/6 proteins were treated with heterobifunctional compounds; endogenous in cells; host or cells: Calu-1
Conditions: 16 hours; for inhibition at 0.04 µM: 40 nM; for inhibition at 0.2 µM: 200 nM
How it was run: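 Percentage degradation of Cyclin D1 and CDK4 derived from densitometry of ECL Western blots on lysates of Calu-1 cells. Treatment was 16 h with compound at either 40 nM or 200 nM.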

CDK4, sequence (P11802 2-303 limits assumed): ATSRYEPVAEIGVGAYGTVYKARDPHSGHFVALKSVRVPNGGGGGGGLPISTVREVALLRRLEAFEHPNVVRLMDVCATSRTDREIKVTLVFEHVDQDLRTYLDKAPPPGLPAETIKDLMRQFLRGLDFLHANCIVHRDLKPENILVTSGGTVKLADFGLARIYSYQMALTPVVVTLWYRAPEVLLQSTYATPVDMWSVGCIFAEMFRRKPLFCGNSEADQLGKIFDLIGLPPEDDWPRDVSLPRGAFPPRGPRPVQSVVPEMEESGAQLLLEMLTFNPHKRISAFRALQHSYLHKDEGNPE
CDK4, sequence (P24385 whole entry partner): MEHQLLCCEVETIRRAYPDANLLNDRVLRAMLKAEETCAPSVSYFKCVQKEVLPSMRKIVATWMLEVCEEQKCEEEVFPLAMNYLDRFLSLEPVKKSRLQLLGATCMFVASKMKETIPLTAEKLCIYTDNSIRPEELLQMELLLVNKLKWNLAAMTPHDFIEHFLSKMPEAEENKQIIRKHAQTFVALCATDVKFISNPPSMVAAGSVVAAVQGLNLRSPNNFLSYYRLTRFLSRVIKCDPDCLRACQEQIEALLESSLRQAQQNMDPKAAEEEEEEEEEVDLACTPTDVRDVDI
CDK4, sequence (Q16531 2-1140 limits assumed): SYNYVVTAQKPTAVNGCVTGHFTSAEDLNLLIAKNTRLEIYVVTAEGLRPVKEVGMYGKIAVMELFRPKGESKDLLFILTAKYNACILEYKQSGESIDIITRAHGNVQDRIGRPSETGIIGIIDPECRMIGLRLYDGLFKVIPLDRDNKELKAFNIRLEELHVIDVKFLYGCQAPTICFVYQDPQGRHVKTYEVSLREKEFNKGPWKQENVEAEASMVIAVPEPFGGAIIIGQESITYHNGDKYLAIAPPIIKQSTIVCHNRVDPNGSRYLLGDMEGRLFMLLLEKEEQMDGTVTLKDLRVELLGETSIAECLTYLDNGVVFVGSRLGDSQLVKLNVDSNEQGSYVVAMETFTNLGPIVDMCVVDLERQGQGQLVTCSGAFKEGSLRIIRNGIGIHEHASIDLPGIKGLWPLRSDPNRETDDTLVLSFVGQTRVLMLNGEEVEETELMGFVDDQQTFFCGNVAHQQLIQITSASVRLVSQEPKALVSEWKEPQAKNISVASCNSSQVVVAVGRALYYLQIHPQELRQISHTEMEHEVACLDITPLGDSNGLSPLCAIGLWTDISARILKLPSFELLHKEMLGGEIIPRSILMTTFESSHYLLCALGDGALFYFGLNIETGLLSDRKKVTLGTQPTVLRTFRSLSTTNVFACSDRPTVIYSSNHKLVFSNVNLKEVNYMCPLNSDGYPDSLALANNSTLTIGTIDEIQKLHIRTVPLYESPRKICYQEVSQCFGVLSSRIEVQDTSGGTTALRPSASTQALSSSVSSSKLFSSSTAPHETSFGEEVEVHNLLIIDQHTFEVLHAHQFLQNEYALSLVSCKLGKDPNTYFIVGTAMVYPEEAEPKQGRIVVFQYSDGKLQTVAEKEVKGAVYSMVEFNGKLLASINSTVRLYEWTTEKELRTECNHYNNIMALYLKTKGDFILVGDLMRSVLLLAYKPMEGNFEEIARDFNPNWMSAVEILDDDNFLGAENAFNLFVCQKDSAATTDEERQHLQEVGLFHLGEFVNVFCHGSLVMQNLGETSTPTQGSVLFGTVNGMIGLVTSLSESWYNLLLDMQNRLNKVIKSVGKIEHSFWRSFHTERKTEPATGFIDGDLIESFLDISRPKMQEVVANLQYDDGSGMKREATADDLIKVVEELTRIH

| SMILES | inhibition at 0.04 µM | inhibition at 0.2 µM |
| --- | --- | --- |
| CNc1ccc(C(=O)Nc2cn(C)cn2)c(NC2CC3(CC(NC(=O)CN4CCN(c5ccc(Nc6ncc7c(C)c(C(C)=O)c(=O)n(C8CCCC8)c7n6)nc5)CC4)C3)C2)n1 (stereo not drawn) [CPD-152, 2-((6-(2-(4-(6-((6-acetyl-8-cyclopentyl-5-methyl-7-oxo-7,8-dihydropyrido[2,3-d]pyrimidin-2-yl)amino)pyridin-3-yl)piperazin-1-yl)acetamido)spiro[3.3]heptan-2-yl)amino)-N-(1-methyl-1H-imidazol-4-yl)-6-(methylamino)nicotinamide] | 30 to 50% | 50 to 80% |
| CNc1ccc(C(=O)Nc2cc(C(F)(F)F)n(C)n2)c(NC2CC3(CC(NC(=O)CN4CCN(c5ccc(Nc6ncc7c(C)c(C(C)=O)c(=O)n(C8CCCC8)c7n6)nc5)CC4)C3)C2)n1 (stereo not drawn) [CPD-127, 2-((6-(2-(4-(6-((6-Acetyl-8-cyclopentyl-5-methyl-7-oxo-7,8-dihydropyrido[2,3-d]pyrimidin-2-yl)amino)pyridin-3-yl)piperazin-1-yl)acetamido)spiro[3.3]heptan-2-yl)amino)-N-(1-methyl-5-(trifluoromethyl)-1H-pyrazol-3-yl)-6-(methylamino)nicotinamide] | < 30% | < 30% |
| CNc1ccc(C(=O)Nc2ccc(N(C)C)nn2)c(NC2CC3(CC(NCC(=O)N4CCN(c5ccc(Nc6ncc7c(C)c(C(C)=O)c(=O)n(C8CCCC8)c7n6)nc5)CC4)C3)C2)n1 (stereo not drawn) [CPD-78, 2-((6-((2-(4-(6-((6-Acetyl-8-cyclopentyl-5-methyl-7-oxo-7,8-dihydropyrido[2,3-d]pyrimidin-2-yl)amino)pyridin-3-yl)piperazin-1-yl)-2-oxoethyl)amino)spiro[3.3]heptan-2-yl)amino)-N-(6-(dimethylamino)pyridazin-3-yl)-6-(methylamino)nicotinamide] | 50 to 80% | 50 to 80% |
| CNc1ccc(C(=O)Nc2ccc(N(C)C)nn2)c(NC2CC3(C2)CN(C(=O)C(C)(C)CN2CCN(c4ccc(Nc5ncc6c(C)c(C(C)=O)c(=O)n(C7CCCC7)c6n5)nc4)CC2)C3)n1 [CPD-118, 2-((2-(3-(4-(6-((6-Acetyl-8-cyclopentyl-5-methyl-7-oxo-7,8-dihydropyrido[2,3-d]pyrimidin-2-yl)amino)pyridin-3-yl)piperazin-1-yl)-2,2-dimethylpropanoyl)-2-azaspiro[3.3]heptan-6-yl)amino)-N-(6-(dimethylamino)pyridazin-3-yl)-6-(methylamino)nicotinamide] | 50 to 80% | 50 to 80% |

The remaining lines, values ahead:

| inhibition at 0.04 µM | inhibition at 0.2 µM | SMILES |
| --- | --- | --- |
| 50 to 80% | 50 to 80% | CNc1ccc(C(=O)Nc2nc(C)c(C)o2)c(NC2CC3(CC(NC(=O)CN4CCN(c5ccc(Nc6ncc7c(C)c(C(C)=O)c(=O)n(C8CCCC8)c7n6)nc5)CC4)C3)C2)n1 (stereo not drawn) [CPD-247, 2-((6-(2-(4-(6-((6-acetyl-8-cyclopentyl-5-methyl-7-oxo-7,8-dihydropyrido[2,3-d]pyrimidin-2-yl)amino)pyridin-3-yl)piperazin-1-yl)acetamido)spiro[3.3]heptan-2-yl)amino)-N-(4,5-dimethyloxazol-2-yl)-6-(methylamino)nicotinamide] |
| 30 to 50% | 30 to 50% | CNc1ccc(C(=O)Nc2cccc(C3CC3)n2)c(NC2CC(NC(=O)CN3CCN(c4ccc(Nc5ncc6c(C)c(C(C)=O)c(=O)n(C7CCCC7)c6n5)nc4)CC3)C2)n1 (stereo not drawn) [CPD-240, 2-((3-(2-(4-(6-((6-acetyl-8-cyclopentyl-5-methyl-7-oxo-7,8-dihydropyrido[2,3-d]pyrimidin-2-yl)amino)pyridin-3-yl)piperazin-1-yl)acetamido)cyclobutyl)amino)-N-(6-cyclopropylpyridin-2-yl)-6-(methylamino)nicotinamide] |
